Data reported in patent US4129721A, “A-40104 antibiotics and process for production thereof” (priority 1977, dated 1978).
Values after ≈ are worked out from the molar mass of the structure shown.

Columns and labels:
[1] = system: Neisseria gonorrhea; assay: gradient-plate agar-dilution method; format: cell-based
[2] = system: Peptococcus asaccharolyticus; assay: standard agar-dilution test, anaerobic bacteria; format: cell-based; settings: Peptoniphilus asaccharolyticus, 2 h
[3] = system: Peptostreptococcus intermedius; assay: standard agar-dilution test, anaerobic bacteria; format: cell-based; settings: 2 h
[4] = system: Bordetella bronchiseptica; assay: standard agar-dilution test; format: cell-based
Text: (§1) A-40104 factor A is an especially useful antibacterial agent. The minimal inhibitory concentrations (MIC's) at which A-40104 factor A inhibits selected bacteria, as determined by standard agar-dilution tests, are summarized in Table III.

[5] = system: Staphylococcus aureus 3055; assay: standard agar-dilution test; format: cell-based
Text: as §1

[6] = system: Streptococcus faecalis; assay: standard agar-dilution test; format: cell-based; settings: Enterococcus faecalis
Text: as §1

[7] = system: Staphylococcus aureus 3074; assay: standard agar-dilution test; format: cell-based
Text: as §1

[8] = system: Streptococcus pneumoniae Park I; assay: experimental bacterial infection in mice; format: in vivo; settings: sc, read-out: ED50 × 2
[9] = system: Hemophilus influenzae Brun; assay: gradient-plate agar-dilution method; format: cell-based; settings: Haemophilus influenzae
[10] = system: Streptococcus pyogenes C203; assay: experimental bacterial infection in mice; format: in vivo; settings: sc, two doses, challenge 195 × LD50 (ip), read-out: ED50 × 2
[11] = system: Streptococcus sp. X-66 (Group D); assay: gradient-plate agar-dilution method; format: cell-based
[12] = system: Bacteroides fragilis 1877; assay: standard agar-dilution test, anaerobic bacteria; format: cell-based; settings: Bacteroides fragilis, 1877, 2 h
[13] = system: Streptococcus pyogenes; assay: gradient-plate agar-dilution method; format: cell-based
[14] = system: Fusobacterium symbiosum; assay: standard agar-dilution test, anaerobic bacteria; format: cell-based; settings: 2 h
[15] = system: bacteria of Table V; assay: gradient-plate agar-dilution method, series of in vitro tests; format: cell-based
[16] = system: Hemophilus influenzae Dick.; assay: gradient-plate agar-dilution method; format: cell-based; settings: Haemophilus influenzae
[17] = system: Hemophilus influenzae 259; assay: gradient-plate agar-dilution method; format: cell-based; settings: Haemophilus influenzae
[18] = acute toxicity, intraperitoneal injection in mice; settings: mouse, in vivo, ip
Text: A special advantage of the A-40104 antibiotics is that they are relatively nontoxic.

[19] = system: experimental bacterial infections; assay: experimental bacterial infections in mice (general statement); format: in vivo
Procedure: When two doses of these compounds were administered to mice in illustrative infections, the activity observed was measured as an ED50 value [effective dose in mg./kg. to protect 50 percent of the test animals; see Warren Wick, et al., J. Bacteriol. 81, 233-235 (1961)].

[20] = system: Hemophilus influenzae 251; assay: gradient-plate agar-dilution method; format: cell-based; settings: Haemophilus influenzae
[21] = system: Neisseria gonorrhea Lind.; assay: gradient-plate agar-dilution method; format: cell-based
[22] = system: Fusobacterium necrophorum; assay: standard agar-dilution test, anaerobic bacteria; format: cell-based; settings: 2 h
[23] = system: pathogenic organisms, particularly gram-positive bacteria; assay: antibacterial activity (general statement); format: cell-based
[24] = electrometric titration; format: physicochemical; settings: 66 percent aqueous dimethylformamide
[25] = solubility
[26] = system: Bacteroides melaninogenicus 1856/28; assay: standard agar-dilution test, anaerobic bacteria; format: cell-based; settings: Prevotella intermedia, read after 2 hours incubation
Text: (§2) Table VIII summarizes the activity of A-40104 factor A, as determined by the standard agar-dilution test.
(§3) *MIC determined by the agar-dilution method. Endpoints were read after 2

[27] = system: Eubacterium aerofacines; assay: standard agar-dilution test, anaerobic bacteria; format: cell-based; settings: 2 h
Text: as §2, §3

[28] = system: Peptostreptococcus anaerobius; assay: standard agar-dilution test, anaerobic bacteria; format: cell-based; settings: 2 h
Text: as §2, §3

[29] = system: Actinomyces israelii; assay: standard agar-dilution test, anaerobic bacteria; format: cell-based; settings: read after 2 hours incubation
Text: as §2, §3

[30] = system: Bacteroides thetaiotaomicron; assay: standard agar-dilution test, anaerobic bacteria; format: cell-based; settings: 2 h
Text: as §2, §3

[31] = system: Clostridium septicum; assay: standard agar-dilution test, anaerobic bacteria; format: cell-based; settings: 2 h
Text: as §2, §3

[32] = system: Pasteurella hemolytica; assay: standard in vitro tests, Pasteurella; format: cell-based
Text: (§4) Another veterinary aspect of this invention is the activity of the A-40104 antibiotics against Pasteurella species. P. multocida, for example, is a causative agent of respiratory infection in cattle, poultry, and swine. P. hemolytica is a major cause of respiratory disease in cattle. The activity of A-40104 factor A and its dihydro derivative against Pasteurella, as determined by standard in vitro tests, is summarized in Table X.

[33] = system: Pasteurella multocida (bovine); assay: standard in vitro tests, Pasteurella; format: cell-based
Text: as §4

[34] = system: Bacteroides fragilis 1936B; assay: standard agar-dilution test, anaerobic bacteria; format: cell-based; settings: 2 h
[35] = system: Streptococcus sp. 9960 (Group D); assay: gradient-plate agar-dilution method; format: cell-based
[36] = system: Peptococcus prevoti; assay: standard agar-dilution test, anaerobic bacteria; format: cell-based; settings: read after 2 hours incubation
[37] = system: powdery mildew; assay: powdery mildew control on bean and barley plants; format: in vivo
Text: The A-40104 antibiotics are also active against plant pathogens. […] The systemic activity of these antibiotics is especially advantageous in the control of plant pathogens or Spiroplasmas.

[38] = system: Hemophilus influenzae Laiv.; assay: gradient-plate agar-dilution method; format: cell-based; settings: Haemophilus influenzae
[39] = system: Streptococcus sp. 9960; assay: standard disc-plate assay; format: cell-based; settings: Group D, disc diameter 6.35 mm, read-out: Zone Diameters
Procedure: In one important aspect of this activity, the A-40104 antibiotics inhibit the growth of organisms which are resistant to other antibiotics. In Table IV the standard disc-plate-assay activity of A-40104 factors A and B against representative organisms is summarized. Activity is measured as the diameter (in mm) of the observed zone of inhibition; the diameter of disc used in each case was 6.35 mm.

SMILES: C=CC1(C)CC(OC(=O)CO[C@@H]2OC[C@@H](O)[C@H](O)[C@H]2O)C2(C)C(C)CCC3(CCC(=O)C32)C(C)C1O (stereo partly drawn) [A-40104 factor A, β,D-xylopyranosyl acetal derivative of pleuromutilin]
- MIC [1]: 0.5 µg/mL (≈ 0.979 µM)
- MIC [2]: ≤ 0.5 µg/mL
- MIC [3]: ≤ 0.5 µg/mL
- MIC [4]: < 0.5 µg/mL
- MIC [5]: < 0.5 µg/mL
- MIC [6]: < 0.5 µg/mL
- MIC [7]: < 0.5 µg/mL
- ED50 [8]: 21.5 mg/kg
- MIC [9]: 2 µg/mL (≈ 3.92 µM)
- ED50 [10]: 3.6 mg/kg
- MIC [11]: 0.5 µg/mL (≈ 0.979 µM)
- MIC [12]: 8 µg/mL (≈ 15.7 µM)
- MIC [13]: < 0.01 µg/mL
- MIC [14]: 4 µg/mL (≈ 7.83 µM)
- comparison with ampicillin [15]: compares favorably with ampicillin
- MIC [16]: 2 µg/mL (≈ 3.92 µM)
- MIC [17]: 0.7 µg/mL (≈ 1.37 µM)
- LD50 [18]: > 300 mg/kg
- in vivo antimicrobial activity [19]: have shown in vivo antimicrobial activity
- MIC [20]: 0.7 µg/mL (≈ 1.37 µM)
- MIC [21]: 0.5 µg/mL (≈ 0.979 µM)
- MIC [22]: ≤ 0.5 µg/mL
- growth inhibition of pathogenic organisms [23]: inhibit the growth of certain pathogenic organisms, particularly gram-positive bacteria
- titratable groups [24]: no titratable groups are present
- solubility in alcohols ([25]; alcohols such as methanol and ethanol): soluble in alcohols such as methanol and ethanol
- solubility in chloroform ([25]; chloroform): partially soluble in chloroform
- solubility in water ([25]; water): insoluble in water
- MIC [26]: 4 µg/mL (≈ 7.83 µM)
- MIC [27]: 16 µg/mL (≈ 31.3 µM)
- MIC [28]: 2 µg/mL (≈ 3.92 µM)
- MIC [29]: ≤ 0.5 µg/mL
- MIC [30]: 2 µg/mL (≈ 3.92 µM)
- MIC [31]: 8 µg/mL (≈ 15.7 µM)
- MIC [32]: 25 µg/mL (≈ 49 µM)
- MIC [33]: 6.25 µg/mL (≈ 12.2 µM)
- MIC [34]: 8 µg/mL (≈ 15.7 µM)
- MIC [35]: 70 µg/mL (≈ 137 µM)
- MIC [36]: ≤ 0.5 µg/mL
- control of powdery mildew ([37]; bean and barley plants, soil drench, 100 ppm): control of powdery mildew is obtained
- activity against powdery mildew ([37]; foliar spray or soil drench): active against powdery mildew
- MIC [38]: 4 µg/mL (≈ 7.83 µM)
- zone of inhibition at 10 µg/disc ([39]; 10 mcg/disc): 0 mm
- zone of inhibition at 100 µg/disc ([39]; 100 mcg/disc): 8.7 mm
